Measurements: patent US10603345B2, “Pharmaceutical composition for treating respiratory disease” (Kunming Institute of Botany, The Chinese Academy of Sciences, priority 2015, dated 2020)

Key:
Assay type in all cases: in vivo
[1] = tested on: MDA in serum and BALF of asthma model mouse; experiment: Effect on MDA in serum and BALF of asthma model mouse; details: ig 7 d, dose/kg: dexamethasone 2.0 mg, Test group 1 50, 2 25, picrinine 5.0, vallesamine 3.0, scholaricine 3.0, 19-epi-scholaricine 3.5 mg, x ± SD; for MDA lavage fluid: BALF
Experimental: (§1) Animal source: 25˜30 g male ICR mouse, from laboratory animal department of Kunming Medical University, License No. SCXK (Dian) 2011-0004.
(§2) Method and route: ovalbumin (OVA) was used to induce mouse asthma model, and after intragastrical administration for 7 d at a dose of 20 mL/kg, the animal was sacrificed at the eighth day.
(§3) Test group 1: picrinine, vallesamine, scholaricine and 19-epischolaricine prepared in Example 1.7 were homogeneously mixed at different ratios by weight (50 mg/kg), Test group 2: the alkaloid composition prepared in Example 1.4 (25 mg/kg). […]
(§4) Sample preparation: all the samples were prepared by using 0.5% carboxymethylcellulose sodium (0.5% CMC-Na).
Group and dose: in Test group 1, the ratio of picrinine, vallesamine, scholaricine and 19-epischolaricine by weight was 8:6:5:1, and the other groups and doses thereof were as described in Example 11.
Test index: MDA in serum and BALF was used as index, and was determined by thiobarbituric acid method.

[2] = tested on: MDA in serum and homogenate of COPD model mouse; experiment: Effect on MDA in serum and homogenate of COPD model mouse; details: ig 7 d; for content of MDA (serum or homogenate not given): vallesamine 6, scholaricine 7, 19-epi-scholaricine 2 mg/kg; for MDA Homogenate: lung homogenate; for MDA Homogenate / MDA Serum: dose/kg: dexamethasone 1 mg, Test group 1 50, 2 25, 3 10, picrinine 10, vallesamine 6, scholaricine 7, 19-epi-scholaricine 2 mg, x ± SD
Experimental: as §1
(§5) Method and route: lipopolysaccharide (LPS) plus smoke exposure was used for 30 days to induce mouse chronic obstructive pulmonary disease model; and after intragastrical administration for 7 d at a dose of 20 mL/kg, the animal was sacrificed at the eighth day.
(§6) Picrinine group (10 mg/kg), Vallesamine group (6.0 mg/kg), Scholaricine group (7.0 mg/kg), 19-epischolaricine group (2.0 mg/kg).
as §4
Group and dose: in Test group 1, the ratio of picrinine, vallesamine, scholaricine and 19-epischolaricine by weight was 9:6:5:1, and the other groups and doses thereof were as described in Example 10.
Test index: MDA in serum and homogenate was used as index, and was determined by thibabituric acid method.

[3] = tested on: IgE in serum of asthma model mouse; experiment: Effect on IgE in serum of asthma model mouse; details: ELISA, ig 7 d, dose/kg: dexamethasone 2.0 mg, Test group 1 50, 2 25, picrinine 5.0, vallesamine 3.0, scholaricine 3.0, 19-epi-scholaricine 3.5 mg, x ± SD
Experimental: as §1, §2, §3, §4
Group and dose: In Test group 1, the ratio of picrinine, vallesamine, scholaricine and 19-epischolaricine by weight was 30:33:27:6, and the other groups and doses thereof were as described in Example 11.
Test index: immunoglobulin IgE in serum was used as index, and was determined by enzyme linked immunosorbent assay.

[4] = tested on: IL-6 in serum of COPD model mouse; experiment: Effect on IL-6 in serum of COPD model mouse; details: ELISA, ig 7 d, dose/kg: dexamethasone 1 mg, Test group 1 50, 2 25, 3 10, picrinine 10, vallesamine 6, scholaricine 7, 19-epi-scholaricine 2 mg, x ± SD
Experimental: as §1, §5, §6, §4
Group and dose: in Test group 1, the ratio of picrinine, vallesamine, scholaricine and 19-epischolaricine by weight was 38:30:27:7, and the other groups and doses thereof were as described in Example 10.
Test index: IL-6 in serum was used as index, and was determined by enzyme linked immunosorbent assay.

[5] = tested on: SOD in serum and homogenate of COPD model mouse; experiment: Effect on SOD in serum and homogenate of COPD model mouse; details: ig 7 d, dose/kg: dexamethasone 1 mg, Test group 1 50, 2 25, 3 10, picrinine 10, vallesamine 6, scholaricine 7, 19-epi-scholaricine 2 mg, x ± SD; for SOD homogenate: lung homogenate
Experimental: as §1, §5, §6, §4
Group and dose: in Test group 1, the ratio of picrinine, vallesamine, scholaricine and 19-epischolaricine by weight was 16:11:12:3, and the other groups and doses thereof were as described in Example 10.
Test index: SOD in serum and lung homogenate was used as index, and was determined by xanthine oxidase method.

[6] = tested on: white blood cell count and classification in BALF of COPD model mouse; experiment: Effect on white blood cell count and classification in BALF of COPD model mouse; details: COPD mouse (LPS plus smoke exposure 30 days), ig 7 d, dose/kg: dexamethasone 1 mg, Test group 1 50, 2 25, 3 10, picrinine 10, vallesamine 6, scholaricine 7, 19-epi-scholaricine 2 mg, x ± SD
Experimental: as §1, §5, §6, §4
Group and dose: in Test group 1, the ratio of picrinine, vallesamine, scholaricine and 19-epischolaricine by weight was 48:40:29:10, and the other groups and doses thereof were as described in Example 10.
Test index: total number of white blood cells and inflammatory cell classification in bronchoalveolar lavage fluid (BALF) were used as indexes, and were determined by full-automatic hemocytometer.

[7] = tested on: IL-4 in BALF of asthma model mouse; experiment: Effect on IL-4 in BALF of asthma model mouse; details: ELISA, ig 7 d, dose/kg: dexamethasone 2.0 mg, Test group 1 50, 2 25, picrinine 5.0, vallesamine 3.0, scholaricine 3.0, 19-epi-scholaricine 3.5 mg, x ± SD
Experimental: as §1, §2, §3, §4
Group and dose: in Test group 1, the ratio of picrinine, vallesamine, scholaricine and 19-epischolaricine by weight was 25:18:15:3, and the other groups and doses thereof were as described in Example 11. […]

[8] = tested on: Eotaxin in serum of asthma model mouse; experiment: Effect on Eotaxin in serum of asthma model mouse; details: ELISA, ig 7 d, dose/kg: dexamethasone 2.0 mg, Test group 1 50, 2 25, picrinine 5.0, vallesamine 3.0, scholaricine 3.0, 19-epi-scholaricine 3.5 mg, x ± SD
Experimental: as §1, §2, §3, §4
Group and dose: in Test group 1, the ratio of picrinine, vallesamine, scholaricine and 19-epischolaricine by weight was 37:42:30:8, and the other groups and doses thereof were as described in Example 11.
Test index: eosinophil chemotactic factor (Eotaxin) in serum was used as index, and was determined by enzyme linked immunosorbent assay.

[9] = tested on: SOD in serum and BALF of asthma model mouse; experiment: Effect on SOD in serum and BALF of asthma model mouse; details: ig 7 d, dose/kg: dexamethasone 2.0 mg, Test group 1 50, 2 25, picrinine 5.0, vallesamine 3.0, scholaricine 3.0, 19-epi-scholaricine 3.5 mg, x ± SD; for SOD lavage fluid: BALF
Experimental: as §1, §2, §3, §4
Group and dose: in Test group 1, the ratio of picrinine, vallesamine, scholaricine and 19-epischolaricine by weight was 12:10:9:2, and the other groups and doses thereof were as described in Example 11.
Test index: SOD in serum and BALF was used as index, and was determined by xanthine oxidase method.

COC(=O)C1=C2Nc3c(O)cccc3[C@@]23CCN2C[C@@H]([C@H](C)O)[C@@H]1C[C@H]23 [19-epi-scholaricine, 19-epischolaricine]
MDA lavage fluid [1]: 2.55 ± 1.47 nmol/mL
MDA Serum [1]: 13.55 ± 4.66 nmol/mL
content of MDA (serum or homogenate not given) [2]: significantly decrease
MDA Homogenate [2]: 6.03 ± 0.66 nmol/mL
MDA Serum [2]: 10.94 ± 1.67 nmol/mL
IgE [3]: 3.55 ± 0.87 µg/mL
IL-6 [4]: 23.3 ± 4.1 pg/mL
SOD homogenate [5]: 61.32 ± 9.35 U/mL
Leukocyte number [6]: 2.0 ± 1.6 ×10^5/mL
IL-4 [7]: 11.16 ± 3.58 pg/mL
Eotaxin [8]: 8.74 ± 1.40 pg/mL
SOD lavage fluid [9]: 71.82 ± 12.39 U/mL
SOD Serum [9]: 73.85 ± 7.93 U/mL

C/C=C1/CN2[C@@H]3C[C@@]45c6ccccc6N[C@]4(O3)[C@@H]2C[C@@H]1[C@H]5C(=O)OC [picrinine]
MDA lavage fluid [1]: 3.29 ± 2.07 nmol/mL
MDA Serum [1]: 14.03 ± 5.71 nmol/mL
MDA Homogenate [2]: 6.17 ± 1.46 nmol/mL
MDA Serum [2]: 11.21 ± 4.46 nmol/mL
IgE [3]: 3.85 ± 0.72 µg/mL
IL-6 [4]: 23.9 ± 3.9 pg/mL
SOD homogenate [5]: 56.01 ± 12.78 U/mL
SOD Serum [5]: 91.15 ± 10.90 U/mL
Leukocyte number [6]: 2.1 ± 1.8 ×10^5/mL
IL-4 [7]: 12.60 ± 4.39 pg/mL
Eotaxin [8]: 9.03 ± 1.80 pg/mL
SOD lavage fluid [9]: 62.32 ± 8.22 U/mL
SOD Serum [9]: 70.31 ± 7.30 U/mL

C/C=C1/CN2CC[C@@H]1[C@@](CO)(C(=O)OC)c1[nH]c3ccccc3c1C2 [vallesamine]
MDA lavage fluid [1]: 2.92 ± 1.48 nmol/mL
MDA Serum [1]: 13.36 ± 6.10 nmol/mL
content of MDA (serum or homogenate not given) [2]: significantly decrease
MDA Homogenate [2]: 7.12 ± 1.44 nmol/mL
MDA Serum [2]: 11.07 ± 1.29 nmol/mL
IgE [3]: 3.57 ± 0.99 µg/mL
IL-6 [4]: 25.0 ± 3.6 pg/mL
SOD homogenate [5]: 58.43 ± 5.73 U/mL
SOD Serum [5]: 91.72 ± 12.34 U/mL
Leukocyte number [6]: 1.8 ± 1.7 ×10^5/mL
Neutrophil number [6]: 0.75 ± 0.51 ×10^5/mL
IL-4 [7]: 11.61 ± 2.40 pg/mL
Eotaxin [8]: 8.90 ± 2.36 pg/mL
SOD lavage fluid [9]: 70.88 ± 8.52 U/mL
SOD Serum [9]: 70.53 ± 7.77 U/mL
